Source: patent US10364263B2, “Cyclic phosphates and cyclic phosphoramidates for the treatment of neurologic disorders” (Retrophin, Inc., priority 2015, dated 2019)

Experiments:
[1] = test system: PANK2 silenced human neuroblastoma IMR32 cells (PANK2−/−); assay: Coenzyme A assay in PANK2 silenced cells (LC-MS quantification of free CoA); format: cell-based; settings: compound added twice (24 h + 24 h), relative to 0.1% DMSO controls
Method in brief: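 Free intracellular CoA was measured by positive-mode LC-MS/MS of 20% TFA extracts, taking 2 μl per 10^6 cells as intracellular volume. Cells were IMR32 with stable lentiviral PANK2 knockdown, dosed twice 24 h apart (48 h total, 0.1% DMSO). Output is fold increase over vehicle.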

[2] = Stability in mouse plasma; format: in vitro ADME; settings: mouse, plasma
Method in brief: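 Test compound at 3 μM (0.1% DMSO) was incubated in mouse or human plasma at 37 °C and sampled in duplicate at 0, 10, 20, 30, 40 and 60 min. Reactions were stopped with acetonitrile/formic acid containing internal standard. Remaining parent was measured by UPLC-MS/MS without a calibration curve.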

[3] = Stability in mouse hepatocytes; format: in vitro ADME; settings: t1/2, Mouse Hepatocytes
[4] = Stability in human hepatocytes; format: in vitro ADME; settings: t1/2, Human Hepatocytes

- half-life at 3 µM [2]: < 9.6 min
- t1/2, Mouse Plasma, Diastereoisomer B ([2]; 3 µM): <9.6 min
- half-life at 5 µM ([3]; Diastereoisomer A): < 15 min
- half-life at 5 µM ([3]; Diastereoisomer B): < 15 min
- half-life at 5 µM ([4]; Diastereoisomer A): < 15 min
- half-life at 5 µM ([4]; Diastereoisomer B): < 15 min
Structure (SMILES): CCc1cc(C(=O)OCOP2(=O)OCC(C)(C)[C@H](C(=O)NCCC(=O)OC)O2)n(C)n1 (stereo partly drawn) [Compound No. 84, (((4R)-4-((3-methoxy-3-oxopropyl)carbamoyl)-5,5-dimethyl-2-oxido-1,3,2-dioxaphosphinan-2-yl)oxy)methyl 3-ethyl-1-methyl-1H-pyrazole-5-carboxylate]
- PANK2−/− CoA (Fold Increase): fold increase in Coenzyme A (CoA) levels relative to controls [1]: 325.47 Fold Increase
